# Values joined by “and” are separate entries in the source; they are usually repeats but may differ in a detail not shown here. Equal entries are not always repeated.
# Columns and labels:
# Format in all cases: cell-based
# MCF-7 cells = assay: MTT assay for cell proliferation, MCF-7; set-up: key to Inhibitory rate / Inhibition rate: inhibition rate = 1 - mean A490 sample/mean A490 control (fraction); settings: for Inhibition rate (16μM), 48 h, MCF-7: preliminary screening, MCF-7, 16 μM, mean±SD, unit not given
# Experimental: (§1) HepG2, HeLa, MCF-7, and KYSE-30 cells were grown in a humidified incubator at 37°C with 5% CO2 in DMEM supplemented with 10% fetal bovine serum (FBS), […] streptomycin, and 100 U/mL penicillin.
# (§2) When HepG2 cells reached 80% confluence, they were treated with 1 mL of trypsin and resuspended at a density of 10^5 cells/mL. Then, 100 μL of cell suspension was seeded into each well of a 96-well plate and incubated in a humidified atmosphere. The different concentrations of KJ-5 and KJ-12 (0, 1, 2, 4, 8, 16, and 32 μM) were added to each well, and the cells were further incubated for 48 h. Afterward, 20 μL of the MTT solution (5 mg/mL) was added to each well, and incubation was continued for another 4 h. The supernatant was discarded, and 200 μL of the DMSO solution was added to each well. The plate was shaken for 10 min in the dark. The absorbance values were measured at 490 nm using an enzyme-linked detector. The cell inhibition rate (%) was calculated using the following formula: (1-Mean A490 sample/Mean A490 control) × 100%.
# KYSE-30 cells = assay: MTT assay for cell proliferation, KYSE-30; set-up: key to Inhibitory rate: inhibition rate = 1 - mean A490 sample/mean A490 control (fraction); settings: for Inhibitory rate: KYSE-30, given as fraction; for Inhibition rate (16μM), 48 h, KYSE-30: preliminary screening, KYSE-30, 16 μM, mean±SD, unit not given
# Experimental: as §1, §2
# HeLa cells = assay: MTT assay for cell proliferation, HeLa; set-up: key to Inhibitory rate: inhibition rate = 1 - mean A490 sample/mean A490 control (fraction); settings: Hela; for Inhibitory rate / ODtreated/ODcontrol: fraction, per experiment; for Inhibition rate (16μM), 48 h, Hela: preliminary screening, mean±SD, unit not given
# Experimental: as §1, §2
# HepG2 cells = assay: MTT assay for cell proliferation and cytotoxicity, HepG2; set-up: key to Inhibitory rate: inhibition rate = 1 - mean A490 sample/mean A490 control (fraction); settings: for IC50: HepG2, 48 h, MTT; for Inhibitory rate / ODtreated/ODcontrol: HepG2, fraction, per experiment; for Inhibition rate (16μM), 48 h, HepG2: preliminary screening, HepG2, 16 μM, mean±SD, unit not given
# Experimental: as §1, §2
# [1] = MCF-7, fraction, per experiment
# [2] = given as fraction, second of three experiments
# [3] = given as fraction, third of three experiments
# [4] = KYSE-30, first of three experiments
# [5] = KYSE-30, second of three experiments
# [6] = KYSE-30, third of three experiments
Structure (SMILES),Inhibitory rate (MCF-7 cells; [1]),ODtreated/ODcontrol (MCF-7 cells; [1]),Inhibitory rate (MCF-7 cells; [2]),Inhibition rate (MCF-7 cells; [3]),"Inhibition rate (16μM), 48 h, MCF-7 (MCF-7 cells)",ODtreated/ODcontrol (MCF-7 cells; second of three experiments),ODtreated/ODcontrol (MCF-7 cells; third of three experiments),ODtreated/ODcontrol (KYSE-30 cells; [4]),Inhibitory rate (KYSE-30 cells; first of three experiments),Inhibitory rate (KYSE-30 cells; second of three experiments),Inhibitory rate (KYSE-30 cells; third of three experiments),ODtreated/ODcontrol (KYSE-30 cells; [5]),ODtreated/ODcontrol (KYSE-30 cells; [6]),"Inhibition rate (16μM), 48 h, KYSE-30 (KYSE-30 cells)",Inhibitory rate (HeLa cells),ODtreated/ODcontrol (HeLa cells),"Inhibition rate (16μM), 48 h, Hela (HeLa cells)",IC50 (HepG2 cells),Inhibitory rate (HepG2 cells),ODtreated/ODcontrol (HepG2 cells),also measured
CCc1ccccc1-n1cc(-c2cccc(NC(=O)c3cn4c(c(OC)c3=O)C(=O)N3[C@@H](C)CO[C@@H]3C4)c2)nn1 [KJ-4],0.4901,0.5099,0.5179,0.4059,47.13±5.83,0.4821,0.5941,0.492,0.508,0.3924,0.4136,0.6076,0.5864,43.8±6.15,0.4763 and 0.5136 and 0.3886,0.5237 and 0.4864 and 0.6114,45.95±6.42,15.1 ± 0.28 µM,0.5128 and 0.512 and 0.5016,0.4872 and 0.488 and 0.4984,"Inhibition rate (16μM), 48 h, HepG2 (HepG2 cells): 50.88±0.63"
COc1c2n(cc(C(=O)Nc3cccc(-c4cn(-c5ccccc5C)nn4)c3)c1=O)C[C@H]1OC[C@H](C)N1C2=O [KJ-3],0.4113,0.5887,0.4254,0.3305,38.91±5.12,0.5746,0.6695,0.6097,0.3903,0.2997,0.2805,0.7003,0.7195,32.35±5.86,0.3938 and 0.4133 and 0.3211,0.6062 and 0.5867 and 0.6789,37.61±4.86,19.5 ± 0.5 µM,0.4219 and 0.4728 and 0.4157,0.5781 and 0.5272 and 0.5843,"Inhibition rate (16μM), 48 h, HepG2 (HepG2 cells): 43.68±3.13"
COc1c2n(cc(C(=O)Nc3cccc(-c4cn(-c5cccc(C(F)(F)F)c5)nn4)c3)c1=O)C[C@H]1OC[C@H](C)N1C2=O [KJ-8],0.6331,0.3669,0.5745,0.558,58.85±3.95,0.4255,0.442,0.3962,0.6038,0.6049,0.5814,0.3951,0.4186,59.67±1.33,0.6574 and 0.6919 and 0.6249,0.3426 and 0.3081 and 0.3751,65.81±3.35,9.41 ± 1.3 µM,0.6351 and 0.626 and 0.6586,0.3649 and 0.374 and 0.3414,"Inhibition rate (16μM), 48 h, HepG2 (HepG2 cells): 63.99±1.68"
COc1c2n(cc(C(=O)Nc3cccc(-c4cn(-c5ccccc5Br)nn4)c3)c1=O)CC1OCC(C)N1C2=O (stereo not drawn) [KJ-13],0.2953,0.7047,0.2534,0.2193,25.6±3.81,0.7467,0.7807,0.7102,0.2898,0.2542,0.2107,0.7458,0.7893,25.16±3.96,0.1723 and 0.1977 and 0.2047,0.8277 and 0.8023 and 0.7953,19.16±1.71,> 50 µM,0.2436 and 0.2489 and 0.2333,0.7564 and 0.7511 and 0.7667,"Inhibition rate (16μM), 48 h, HepG2 (HepG2 cells): 24.19±0.79"
COc1c2n(cc(C(=O)Nc3cccc(-c4cn(-c5cccc(Cl)c5)nn4)c3)c1=O)CC1OCC(C)N1C2=O (stereo not drawn) [KJ-17],0.5766,0.4234,0.4958,0.6004,55.76±5.48,0.5042,0.3996,0.4828,0.5172,0.6074,0.5319,0.3926,0.4681,55.22±4.84,0.5384 and 0.6161 and 0.6258,0.4616 and 0.3839 and 0.3742,59.34±4.79,9.83 ± 0.85 µM,0.6231 and 0.6364 and 0.626,0.3769 and 0.3636 and 0.374,"Inhibition rate (16μM), 48 h, HepG2 (HepG2 cells): 62.85±0.70"
COc1c2n(cc(C(=O)Nc3cccc(-c4cn(-c5cccc(F)c5)nn4)c3)c1=O)C[C@H]1OC[C@H](C)N1C2=O [KJ-6],0.5139,0.4861,0.536,0.519,52.3±1.16,0.464,0.481,0.3817,0.6183,0.5213,0.4998,0.4787,0.5002,54.65±6.31,0.6049 and 0.5572 and 0.5217,0.3951 and 0.4428 and 0.4783,56.13±4.18,7.63 ± 1.2 µM,0.6124 and 0.6058 and 0.5961,0.3876 and 0.3942 and 0.4039,"Inhibition rate (16μM), 48 h, HepG2 (HepG2 cells): 60.48±0.82"
COc1c2n(cc(C(=O)Nc3cccc(-c4cn(-c5cc(C(F)(F)F)ccc5C(F)(F)F)nn4)c3)c1=O)CC1OCC(C)N1C2=O (stereo not drawn) [KJ-11],0.1458,0.8542,0.193,0.2016,18.01±3.00,0.807,0.7984,0.7351,0.2649,0.225,0.2137,0.775,0.7863,23.45±2.69,0.2491 and 0.2184 and 0.2018,0.7509 and 0.7816 and 0.7982,22.31±2.4,> 50 µM,0.2636 and 0.2471 and 0.2291,0.7364 and 0.7529 and 0.7709,"Inhibition rate (16μM), 48 h, HepG2 (HepG2 cells): 24.66±1.73"
COc1c2n(cc(C(=O)Nc3cccc(-c4cn(-c5ccccc5)nn4)c3)c1=O)CC1OCC(C)N1C2=O (stereo not drawn) [KJ-16],0.4071,0.5929,0.3917,0.4369,41.19±2.3,0.6083,0.5631,0.634,0.366,0.4151,0.4118,0.5849,0.5882,39.76±2.74,0.3434 and 0.3651 and 0.3539,0.6566 and 0.6349 and 0.6461,35.41±1.09,28.82 ± 0.1 µM,0.4156 and 0.4284 and 0.3769,0.5844 and 0.5716 and 0.6231,"Inhibition rate (16μM), 48 h, HepG2 (HepG2 cells): 40.70±2.68"

# Reference: PMC10590056, “Design and synthesis of cabotegravir derivatives bearing 1,2,3-triazole and evaluation of anti-liver cancer activity” (Frontiers in Pharmacology, 2023)
